In ChEMBL document CHEMBL5050844 (2019):

Key:
Assay type in all cases: functional, T cell line
[1] = Induction of anti-CD3/CD28 antibodies-stimulated human T cell activation at 4 uM assessed fold increase in IL-2 secretion measured by ELISA assay
[2] = Induction of anti-CD3/CD28 antibodies-stimulated human T cell activation at 1 uM assessed fold increase in IL-2 secretion measured by ELISA assay
[3] = Induction of anti-CD3/CD28 antibodies-stimulated human T cell activation at 0.3 uM assessed fold increase in IL-2 secretion measured by ELISA assay
[4] = Induction of anti-CD3 antibodies-stimulated human T cell activation at 8 uM assessed fold increase in IL-2 secretion measured by ELISA assay; also: reference of the scale not given here
[5] = Induction of anti-CD3 antibodies-stimulated human T cell activation at 1 uM assessed fold increase in IL-2 secretion measured by ELISA assay; also: reference of the scale not given here
[6] = Induction of anti-CD3/CD28 antibodies-stimulated human T cell activation at 4 uM assessed fold increase in CD25 expression measured by ELISA assay
[7] = Induction of anti-CD3/CD28 antibodies-stimulated human T cell activation at 1 uM assessed fold increase in CD25 expression measured by ELISA assay
[8] = Induction of anti-CD3/CD28 antibodies-stimulated human T cell activation at 0.3 uM assessed fold increase in CD25 expression measured by ELISA assay
[9] = Induction of anti-CD3 antibodies-stimulated human T cell activation at 8 uM assessed fold increase in CD25 expression measured by ELISA assay; also: reference of the scale not given here
[10] = Induction of anti-CD3 antibodies-stimulated human T cell activation at 1 uM assessed fold increase in CD25 expression measured by ELISA assay; also: reference of the scale not given here

| SMILES | fold change (FC) [1] | fold change (FC) [2] | fold change (FC) [3] | fold change (FC) [4] | fold change (FC) [5] | fold change (FC) [6] | fold change (FC) [7] | fold change (FC) [8] | fold change (FC) [9] | fold change (FC) [10] | fold change (FC) ([1]; 4 µM) | fold change (FC) ([2]; 1 µM) | fold change (FC) ([3]; 0.3 µM) | fold change (FC) ([5]; 1 µM) | fold change (FC) ([9]; 8 µM) |
| --- | --- | --- | --- | --- | --- | --- | --- | --- | --- | --- | --- | --- | --- | --- | --- |
| C[C@H](Cc1nncn1C)c1cc(NC2CCC2)nc(N2Cc3c(cccc3C(F)(F)F)C2=O)c1 | 1.01 | 1.01 | 1.01 | 0.151 | <=0.05 | 1.01 | 1.01 | 1.01 | >=1.001 | 0.601 |  |  |  |  |  |
| C[C@H](Sc1nncn1C)c1cccc(NC(=O)c2cccc(C(C)(F)F)n2)c1 | 2.51 | <=1 | <=1 | 0.151 | <=0.05 | >=1.76 | 1.51 | 1.01 | >=1.001 | 0.801 |  |  |  |  |  |
| Cn1cnnc1[C@H]1CC[C@H]1c1cccc(N2Cc3c(cccc3C(F)(F)F)C2=O)c1 (racemic) | 1.01 | 1.01 | <=1 | 0.101 | <=0.05 | 1.01 | <=1 | <=1 | <=0.6 | <=0.6 |  |  |  |  |  |
| Cn1cnnc1C(F)(F)[C@@](C)(F)c1cccc(N2Cc3c(cc(CN4CC[C@H](F)C4)cc3C(F)(F)F)C2=O)c1 | 1.01 | <=1 | <=1 | 0.051 | 0.051 | 1.01 | <=1 | <=1 | 0.801 | 0.601 |  |  |  |  |  |
| C[C@H](Sc1nncn1C)c1ccnc(NC(=O)c2cc(Cl)cc(C(F)(F)F)n2)c1 | <=1 | 1.01 | 1.01 | <=0.05 | <=0.05 | <=1 | 1.01 | 1.01 | 0.601 | <=0.6 |  |  |  |  |  |
| Cn1cnnc1C[C@](C)(F)c1cccc(N2Cc3c(cccc3C(F)(F)F)C2=O)c1 | 1.01 | 1.01 | 1.01 | 0.101 | 0.051 | 1.01 | <=1 | 1.01 | 0.801 | 0.601 |  |  |  |  |  |
| C[C@H](Cc1nncn1C)c1cccc(N2Cc3c(ccnc3C3CCC3)C2=O)c1 | 5 | 2.51 | 1.01 | 0.101 | 0.051 | 1.01 | 1.01 | <=1 | >=1.001 | >=1.001 |  |  |  |  |  |
| C[C@H](Cc1nncn1C1CC1)c1cccc(N2Cc3c(cccc3C(F)(F)F)C2=O)c1 | 1.01 | 1.01 | <=1 | <=0.05 | <=0.05 | 1.01 | 1.01 | 1.01 | 0.801 | 0.601 |  |  |  |  |  |
| C[C@H](Sc1nncn1C)c1cccc(NC(=O)c2cc(C(=O)N3C[C@H](O)C[C@@H]3C)ccn2)c1 | >=7.5 | >=7.5 | >=7.5 | <=0.05 | <=0.05 | 1.01 | 1.01 | 1.01 | 0.601 | <=0.6 |  |  |  |  |  |
| Cn1cnnc1C(F)(F)[C@](C)(F)c1cccc(N2Cc3c(cc(C(=O)N4CC(C(F)F)C4)cc3C(F)(F)F)C2=O)c1 | 1.01 | 1.01 | 1.01 | 0.051 | 0.051 | 1.01 | 1.01 | 1.01 | 0.801 | 0.601 |  |  |  |  |  |
| CC1CCc2c1n[nH]c2C(=O)Nc1cccc([C@H](C)Cc2nncn2C)c1 (stereo not given in full) | 5 | 2.51 | 1.01 | >=0.201 | 0.101 | 1.01 | <=1 | <=1 | >=1.001 | 0.601 |  |  |  |  |  |
| C[C@H](Cc1nncn1C)c1cccc(NC(=O)c2cc(C(C)(C)O)c(Cl)cn2)c1 | 5 | 1.01 | 2.51 | 0.101 | 0.051 | >=1.76 | 1.31 | 1.01 | <=0.6 | <=0.6 |  |  |  |  |  |
| COc1cc(C(=O)Nc2cccc([C@H](C)Sc3nncn3C)c2)nc(C(F)(F)F)c1 | 5 | 2.51 | 2.51 | >=0.201 | 0.051 | >=1.76 | 1.51 | 1.01 | 0.801 | 0.801 |  |  |  |  |  |
| CC(Sc1nncn1C)c1cc(F)cc(N2Cc3c(cccc3C(F)(F)F)C2=O)c1 (stereo not given) | 1.01 | 1.01 | 1.01 | 0.051 | <=0.05 | 1.01 | <=1 | <=1 | 0.601 | 0.801 |  |  |  |  |  |
| C[C@H](Cc1nncn1C)c1cccc(NC(=O)c2cn3ccnc3cn2)c1 | 1.01 | 1.01 | 1.01 | 0.101 | 0.051 | 1.01 | 1.01 | <=1 | 0.801 | 0.601 |  |  |  |  |  |
| Cc1ccc(C(=O)Nc2cccc(C(C)Cc3nccn3C)c2)nc1C1CC1 (stereo in doubt; 214) |  |  |  | 0.051 |  | 1.01 | <=1 | <=1 |  | <=0.6 | >=7.5 | >=7.5 | >=7.5 | 0.051 | <=0.6 |
| Cc1ccnn1CC(C)c1cccc(NC(=O)c2cccc(C(F)(F)F)n2)c1 (stereo not given) | 1.01 | <=1 | <=1 | 0.051 | 0.051 | 1.51 | 1.31 | 1.51 | <=0.6 | <=0.6 |  |  |  |  |  |
| C[C@@H](c1cccc(N2Cc3c(cccc3C(F)(F)F)C2=O)c1)C(F)(F)c1nncn1C | 2.51 | 1.01 | 1.01 | 0.101 | <=0.05 | 1.01 | 1.01 | 1.01 | 0.801 | 0.601 |  |  |  |  |  |
| C[C@H](Cc1nncn1C)c1cccc(NC(=O)c2cc(O[C@H]3CC[C@@H](O)C3)ccn2)c1 | 2.51 | 1.01 | 1.01 | 0.051 | <=0.05 | 1.01 | 1.01 | 1.01 | 0.801 | 0.801 |  |  |  |  |  |
| C[C@H](Sc1nncn1C)c1cccc(N2Cc3c(ccnc3Cl)C2=O)c1 | 2.51 | <=1 | 1.01 | 0.101 | <=0.05 | >=1.76 | 1.01 | 1.51 | 0.601 | <=0.6 |  |  |  |  |  |
| C[C@@H](Cc1nncn1C)c1cccc(NC(=O)c2cc(C3CC3)cc(C(F)(F)F)n2)c1 | 1.01 | 1.01 | 1.01 | 0.101 | 0.051 | 1.01 | 1.01 | 1.01 | 0.601 | 0.601 |  |  |  |  |  |
| Cc1cc(C(=O)Nc2cc([C@H](C)Sc3nncn3C)ccn2)nc(C(F)(F)F)c1 | 1.01 | 1.01 | 1.01 | 0.051 | <=0.05 | 1.01 | <=1 | <=1 | 0.801 | <=0.6 |  |  |  |  |  |
